Assay results from ChEMBL document CHEMBL3046944, “NEW QUASSINOIDS FROM AILANTHUS EXCELSA” (Med Chem Res, 2004).
Calls of active or inactive are those of the source. The rule behind the calls is not given here.

Assays:
Plasmodium falciparum [1] = assay: Antimalarial activity against Plasmodium falciparum assessed as growth inhibition at 25 nM; type: functional, organism-based
Plasmodium falciparum [2] = assay: Antimalarial activity against Plasmodium falciparum assessed as growth inhibition at 0.2 uM; type: functional, organism-based

| SMILES | growth inhibition (GI) (Plasmodium falciparum [1]) | growth inhibition (GI) (Plasmodium falciparum [2]) |
| --- | --- | --- |
| CCN(CC)CCCC(C)Nc1ccnc2cc(Cl)ccc12 (configuration not stated) | Active |  |
| CCC(C)C(=O)O[C@H]1C(=O)O[C@@H]2C[C@H]3C(C)=C[C@H](O)[C@@H](O)[C@]3(C)[C@H]3[C@@]4(O)OC[C@]32[C@@H]1[C@@H](C)[C@H]4O (some centres not stated) |  | Active |
